Measured values as given in patent US9919060B2 (University Court of the University of Dundee, priority 2009, dated 2018).
Entries after “also recorded” stand apart in the source; their conditions may differ.

Assays:
[1] = test system: human liver microsomes (HLM); assay: Fragmentation of benzofuran ether and carbamate linked coumarins by pooled human liver microsomes (coumarin anion release); settings: for Specific fragmentation activity, HLM: 60 μl HLM in 1.5 ml final reaction volume, NADPH, pH 7.4, mean ± standard deviation of three measurements
Description: (§1) Supersomal™ enzyme metabolism was started by adding a stock solution of prodrug dissolved in DMSO to give a final concentration of 10 μmol dm^−3 prodrug and 0.5% DMSO. HLM screening used 60 microliter microsomes, 100 μmol dm^−3 NADPH, in 10 mmol dm^−3 potassium phosphate buffer at pH 7.4 and 37 OC, in 1.5 ml total reaction volume.
(§2) Therefore, enzymatic hydroxylation of the hetero-aromatic trigger and resultant linker fragmentation can be monitored in real time by release of the coumarin anion by kinetic fluorimetry.
(§3) Release of the coumarin anion indicative of linker fragmentation was monitored using a 1 cm path length fluorescence cell in a Cary Eclipse kinetic flourimeter with excitation and emission slits set at 5 nm. Coumarin anion release from compounds of the invention was detected at the excitation wavelength λex=350·nm and the emission wavelength λem=450 nm. Change in fluorescence intensity was quantified against a linear calibration plot of fluorescence intensity versus coumarin concentration (0 to 3.5 μmol dm^−3) in 10 mmol dm^−3 potassium phosphate buffer at pH 7.4 using the same instrument settings as for enzyme metabolism.

CYP1A2 = biological target: T1, CYP1A2 (Homo sapiens, UniProt P05177); assay: Fragmentation of benzofuran ether and carbamate linked coumarins by Supersomal CYP1A2 (coumarin anion release, kinetic fluorimetry); format: biochemical; settings: 10 pmol enzyme, 10 μmol dm^−3 prodrug, NADPH, pH 7.4, 37° C., mean ± standard deviation of three measurements
T1 construct: purchased BD Gentest, Oxford, UK
T1 sequence (P05177 2-516 limits assumed): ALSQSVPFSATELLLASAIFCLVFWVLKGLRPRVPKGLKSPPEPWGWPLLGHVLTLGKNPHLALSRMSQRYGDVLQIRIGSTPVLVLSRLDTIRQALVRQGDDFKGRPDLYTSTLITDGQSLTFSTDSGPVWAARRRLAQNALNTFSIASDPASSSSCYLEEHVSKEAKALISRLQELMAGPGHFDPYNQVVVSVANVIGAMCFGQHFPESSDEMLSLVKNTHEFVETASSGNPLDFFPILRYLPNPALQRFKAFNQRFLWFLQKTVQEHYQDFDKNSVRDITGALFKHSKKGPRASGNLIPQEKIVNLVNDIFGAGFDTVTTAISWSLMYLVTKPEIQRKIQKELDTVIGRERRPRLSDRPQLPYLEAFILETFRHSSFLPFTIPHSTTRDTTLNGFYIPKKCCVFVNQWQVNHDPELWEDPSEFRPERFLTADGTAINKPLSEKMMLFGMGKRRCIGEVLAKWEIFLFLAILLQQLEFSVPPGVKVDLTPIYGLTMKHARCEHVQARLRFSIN
Description: as §1, §2, §3

CYP1A1 = biological target: T2, CYP1A1 (Homo sapiens, UniProt P04798); assay: Fragmentation of benzofuran ether and carbamate linked coumarins by Supersomal CYP1A1 (coumarin anion release, kinetic fluorimetry); format: biochemical; set-up: purchased BD Gentest, Oxford, UK; settings: 10 pmol enzyme, 10 μmol dm^−3 prodrug, NADPH, pH 7.4, 37° C., mean ± standard deviation of three measurements
T2 sequence (P04798 1-512): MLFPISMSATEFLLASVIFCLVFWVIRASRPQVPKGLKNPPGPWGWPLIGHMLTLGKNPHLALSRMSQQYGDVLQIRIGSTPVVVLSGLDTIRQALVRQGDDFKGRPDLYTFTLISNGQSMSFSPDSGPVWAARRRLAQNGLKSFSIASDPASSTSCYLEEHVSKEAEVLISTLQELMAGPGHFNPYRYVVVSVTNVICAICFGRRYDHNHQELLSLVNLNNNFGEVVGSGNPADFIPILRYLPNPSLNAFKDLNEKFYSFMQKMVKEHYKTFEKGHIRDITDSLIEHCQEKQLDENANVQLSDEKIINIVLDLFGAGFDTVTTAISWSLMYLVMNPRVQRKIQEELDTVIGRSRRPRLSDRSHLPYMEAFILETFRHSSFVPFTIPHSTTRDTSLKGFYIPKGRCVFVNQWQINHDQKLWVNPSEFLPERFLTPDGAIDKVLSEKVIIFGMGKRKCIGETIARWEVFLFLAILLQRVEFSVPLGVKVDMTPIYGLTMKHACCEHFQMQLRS
Description: as §1, §2, §3

CYP1B1 [2] = biological target: T3, CYP1B1 (Homo sapiens, UniProt Q16678); assay: Fragmentation of benzofuran ether and carbamate linked coumarins by Supersomal CYP1B1 (coumarin anion release, kinetic fluorimetry); format: biochemical; set-up: purchased BD Gentest, Oxford, UK; settings: 10 pmol enzyme, 10 μmol dm^−3 prodrug, NADPH, pH 7.4, 37° C., mean ± standard deviation of three measurements
T3 sequence (Q16678 1-543): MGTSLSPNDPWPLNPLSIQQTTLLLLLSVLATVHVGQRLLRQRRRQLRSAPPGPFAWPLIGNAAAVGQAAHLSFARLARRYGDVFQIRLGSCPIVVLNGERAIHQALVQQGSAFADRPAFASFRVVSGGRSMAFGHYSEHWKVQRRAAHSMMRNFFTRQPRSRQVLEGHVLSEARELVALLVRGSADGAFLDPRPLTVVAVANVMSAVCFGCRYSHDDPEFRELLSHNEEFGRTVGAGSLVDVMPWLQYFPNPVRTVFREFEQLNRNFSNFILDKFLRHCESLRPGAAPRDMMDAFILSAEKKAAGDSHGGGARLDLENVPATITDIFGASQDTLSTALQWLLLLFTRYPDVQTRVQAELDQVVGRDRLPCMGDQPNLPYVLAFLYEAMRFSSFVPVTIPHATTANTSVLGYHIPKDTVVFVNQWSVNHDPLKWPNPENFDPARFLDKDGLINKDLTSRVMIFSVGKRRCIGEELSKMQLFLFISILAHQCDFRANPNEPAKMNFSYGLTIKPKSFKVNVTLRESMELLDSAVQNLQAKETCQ
Description: as §1, §2, §3

CYP1B1 [3] = biological target: T3, CYP1B1; assay: CYP1B1 substrate prediction model (Gaussian Kernel weighted k-NN)
[4] = test system: UTSCC-14 primary human tumour xenograft; assay: Anti-tumour activity in primary human tumour xenograft model (UTSCC-14, subcutaneous, nude mice); format: in vivo; settings: for Tumour growth delay at 28 days: 2 cycles: daily for 5 days/2 days off
Description: Primary UTSCC-14 cell lines 3×10^6 were implanted subcutaneously in the flank of nude mice. Mice were randomized to 10 animals per group when the tumour volume was 100 to 150 mm^3. SU046-04 was given intraperitoneally at 12, 25 and 50 mg/Kg in PBS versus versus vehicle alone for 2 cycles: daily for 5 days/2 days off. Tumour volume was measured every 4 days using calipers. […] Tumour growth delay at 28 days was 31% at 12 mg/Kg, 56% at 25 mg/Kg, and 90% at 50 mg/Kg with 4/10 complete responses.

SMILES | Specific fragmentation activity, HLM [1] | Specific fragmentation activity, CYP1A2 (CYP1A2) | % CYP1B1 substrate inhibition, accuracy (predicted versus actual) (CYP1B1 [3]) [%] | also measured
Cc1cc(=O)oc2cc(OCc3cc4ccccc4o3)ccc12 [SU010A, 7-(benzofuran-2-ylmethoxy)-4-methyl-2H-chromen-2-one] | – | – | – | Specific fragmentation activity, HLM ([1]; listed as SU10A): fragmented; Specific fragmentation activity, CYP1A2 (CYP1A2; listed as SU10A): fragmented; Specific fragmentation activity, CYP1A1 (CYP1A1; listed as SU10A): fragmented; Specific fragmentation activity, CYP1B1 (CYP1B1 [2]; listed as SU10A): fragmented
Cc1cc(=O)oc2cc(NC(=O)OCc3cc4ccccc4o3)ccc12 [SU018-03, benzofuran-2-ylmethyl 4-methyl-2-oxo-2H-chromen-7-ylcarbamate] | no release | no release | – | Specific fragmentation activity, CYP1B1 (CYP1B1 [2]): no release
COc1cc(OC)c2oc(COP(=O)(NCCCl)NCCCl)cc2c1 [SU025-04] | – | – | 96 | –
COc1cc(OC)c2oc(COP(=O)(NCCBr)NCCBr)cc2c1 [SU046-04] | – | – | 96 | Tumour growth delay at 28 days ([4]; 12 mg/Kg intraperitoneally): 31%; Tumour growth delay at 28 days ([4]; 25 mg/Kg intraperitoneally): 56%; Tumour growth delay at 28 days ([4]; 50 mg/Kg intraperitoneally): 90%; Complete responses ([4]; 50 mg/Kg intraperitoneally, 10 animals per group): 4/10; Adverse effects and body weight loss ([4]; after highest exposure 250 mg/Kg): No observed adverse effects or significant body weight loss; Tumour growth compared to the vehicle alone ([4]; all three treatment arms: 12, 25 and 50 mg/Kg intraperitoneally): significant inhibition of tumour growth
Cc1cc(=O)oc2cc(OCc3cc4cc(F)cc(F)c4o3)ccc12 [VG016-05, 7-((5,7-difluorobenzofuran-2-yl)methoxy)-4-methyl-2H-chromen-2-one] | no release | no release | 82 | Specific fragmentation activity, CYP1A1 (CYP1A1): no release; Specific fragmentation activity, CYP1B1 (CYP1B1 [2]): no fragmentation of the linker; also recorded: no release; Specific fragmentation activity, CYP1B1 (CYP1B1 [2]; listed as VG016-04): inhibits CYP1 isoenzyme and HLM-induced fragmentation
COc1ccc2oc(COC(=O)Nc3ccc4c(C)cc(=O)oc4c3)cc2c1 [VG032-05, (5-methoxybenzofuran-2-yl)methyl 4-methyl-2-oxo-2H-chromen-7-ylcarbamate] | – | no release | – | –
COc1cc(OC)c2oc(COc3ccc4c(C)cc(=O)oc4c3)cc2c1 [VG035-05, 7-((5,7-dimethoxybenzofuran-2-yl)methoxy)-4-methyl-2H-chromen-2-one] | no linker fragmentation; also recorded: no release | no linker fragmentation; also recorded: no release | 96 | Specific fragmentation activity, CYP1A1 (CYP1A1): no linker fragmentation; also recorded: no release
Cc1cc(=O)oc2cc(NC(=O)OCc3cc4cc(Br)ccc4o3)ccc12 [VG036-05, (5-bromobenzofuran-2-yl)methyl 4-methyl-2-oxo-2H-chromen-7-ylcarbamate] | no release | no release | – | Specific fragmentation activity, CYP1A1 (CYP1A1): no release; Specific fragmentation activity, CYP1B1 (CYP1B1 [2]): no release
COc1cc(OC)c2oc(COC(=O)Nc3ccc4c(C)cc(=O)oc4c3)cc2c1 [VG041-05, (5,7-dimethoxybenzofuran-2-yl)methyl 4-methyl-2-oxo-2H-chromen-7-ylcarbamate] | no release | no release | – | Specific fragmentation activity, CYP1B1 (CYP1B1 [2]): not CYP1A2 or CYP1B1; also recorded: no release
CCOc1ccc2nc3ccc(=O)cc-3oc2c1 [ethoxyresorufin, 7-ethoxyresorufin] | – | – | 95 | –
C=C[C@H]1C[N@@]2CC[C@H]1C[C@@H]2[C@@H](O)c1ccnc2ccc(OC)cc12 [quinidine] | – | – | 64 | –
Oc1ccc(C=Cc2cc(O)cc(O)c2)cc1 [resveratrol] | – | – | 95 | –
Nc1ccc(S(=O)(=O)Nc2ccnn2-c2ccccc2)cc1 [sulfaphenazole] | – | – | 68 | –
O=c1cc(-c2ccccc2)oc2c1ccc1ccccc12 [α-napthoflavone, α-naphthoflavone, reference compound] | – | – | – | Effect of α-naphthoflavone on HLM-mediated SU10A fragmentation (coumarin release) ([1]; HLM, inclusion of 10 μmol dm^−3 α-naphthoflavone): inhibits SU10A fragmentation
C[C@]12CC[C@@H]3c4ccc(O)cc4CC[C@H]3[C@@H]1CC[C@@H]2O [β-estradiol] | – | – | 95 | –
